Patent publication US7585998B2 (Bayer CropScience AG, priority 2003, dated 2009)

Assay: log P determination by HPLC on a reverse phase column (C 18), EEC Directive 79/831 Annex V.A8
Format: physicochemical
Conditions: pH 2.3, 0.1% aqueous phosphoric acid and acetonitrile as eluents, linear gradient 10% to 90% acetonitrile, 43° C.
Experimental: The determination of the log P values reported in the above tables and preparation examples is carried out in compliance with EEC Directive 79/831 Annex V.A8 by HPLC (High Performance Liquid Chromatography) on a reverse phase column (C 18). Temperature: 43° C. The determination is carried out in the acid region at pH 2.3 with 0.1% aqueous phosphoric acid and acetonitrile as eluents; linear gradient of 10% acetonitrile to 90% acetonitrile. Calibration is carried out with unbranched alkan-2-ones (with 3 to 16 carbon atoms) the log P values of which are known (determination of the log P values on the basis of retention times by linear interpolation between two sequential alkanones).

`CCOC(=O)c1sc(C)nc1C(F)F` gave a chromatographic logP of 2.18.
